In ChEMBL document CHEMBL3877294, “Discovery of Ruzasvir (MK-8408): A Potent, Pan-Genotype HCV NS5A Inhibitor with Optimized Activity against Common Resistance-Associated Polymorphisms” (J Med Chem, 2017):

How the values were obtained:
Type in all cases: cell-based
Huh-7 [1] = assay: Inhibition of HCV genotype-3a NS5A infected in human HuH7 cells by luciferase reporter gene assay; conditions: Hepatitis C virus subtype 3a
[2] = test system: T1, Nonstructural protein 5A (Hepatitis C virus), Q5L478 [Y93H]; assay: Inhibition of HCV genotype-1a NS5A Y93H mutant infected in human HuH7 cells by luciferase reporter gene assay; conditions: Hepatitis C virus subtype 1a; Huh-7
T1 sequence (whole entry): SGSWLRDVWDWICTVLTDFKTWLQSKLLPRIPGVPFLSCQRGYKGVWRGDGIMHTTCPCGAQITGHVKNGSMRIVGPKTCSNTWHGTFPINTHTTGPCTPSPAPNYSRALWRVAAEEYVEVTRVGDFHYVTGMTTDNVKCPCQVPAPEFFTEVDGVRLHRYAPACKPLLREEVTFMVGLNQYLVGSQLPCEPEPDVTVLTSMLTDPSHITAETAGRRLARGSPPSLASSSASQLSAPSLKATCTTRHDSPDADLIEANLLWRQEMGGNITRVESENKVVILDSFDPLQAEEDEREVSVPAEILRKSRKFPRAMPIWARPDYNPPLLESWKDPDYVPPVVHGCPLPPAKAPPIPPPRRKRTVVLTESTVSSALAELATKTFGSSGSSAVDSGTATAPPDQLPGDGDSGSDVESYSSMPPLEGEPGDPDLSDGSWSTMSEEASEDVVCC

Huh-7 [3] = assay: Inhibition of HCV genotype-2b NS5A harboring methionine at position 31 infected in human HuH7 cells by luciferase reporter gene assay; conditions: Hepatitis C virus subtype 2b
Huh-7 [4] = assay: Inhibition of HCV genotype-1a NS5A infected in human HuH7 cells by luciferase reporter gene assay; conditions: Hepatitis C virus subtype 1a
[5] = test system: Nonstructural protein 5A (Hepatitis C virus), Q5L478 [UNDEFINED MUTATION]; assay: Inhibition of HCV genotype-1a NS5A L31V mutant infected in human HuH7 cells by luciferase reporter gene assay; conditions: Hepatitis C virus subtype 1a; Huh-7
Huh-7 [6] = assay: Inhibition of HCV genotype-4a NS5A infected in human HuH7 cells by luciferase reporter gene assay; conditions: Hepatitis C virus subtype 4a

SMILES | EC90 (Huh-7 [1]) [nM] | EC90 [2] [nM] | EC90 (Huh-7 [3]) [nM] | EC90 (Huh-7 [4]) [nM] | EC90 [5] [nM] | EC90 (Huh-7 [6]) [nM]
COC(=O)N[C@H](C(=O)N1CCC[C@H]1c1ncc(-c2cc(F)c3c(c2)OC(c2cnco2)n2c-3cc3cc(-c4cnc([C@@H]5CCCN5C(=O)[C@@H](NC(=O)OC)C(C)C)[nH]4)ccc32)[nH]1)C(C)C (stereo partly specified) | 0.25 | 8.5 | 14.1 | 0.06 | – | –
COC(=O)N[C@H](C(=O)N1CCC[C@H]1c1ncc(-c2cc(F)c3c(c2)OC(c2ccc(C(F)(F)F)s2)n2c-3cc3cc(-c4cnc([C@@H]5CCCN5C(=O)[C@@H](NC(=O)OC)C(C)C)[nH]4)ccc32)[nH]1)C(C)C (stereo partly specified) | 0.007 | 0.31 | 0.31 | 0.003 | 0.097 | 0.003
COC(=O)N[C@H](C(=O)N1CCC[C@H]1c1ncc(-c2cc(F)c3c(c2)OC(c2cc4c(s2)CCC4)n2c-3cc3cc(-c4cnc([C@@H]5C[C@H]6C[C@H]6N5C(=O)[C@@H](NC(=O)OC)C(C)C)[nH]4)ccc32)[nH]1)C(C)C (stereo partly specified) | 0.012 | 0.2 | 0.67 | 0.006 | 0.015 | 0.005
CCc1nnc(C2Oc3cc(-c4cnc([C@@H]5CCCN5C(=O)[C@@H](NC(=O)OC)C(C)C)[nH]4)cc(F)c3-c3cc4cc(-c5cnc([C@@H]6CCCN6C(=O)[C@@H](NC(=O)OC)C(C)C)[nH]5)ccc4n32)s1 (stereo partly specified) | 0.18 | 7.4 | > 1.7 | 0.016 | – | –
CCc1ncc(C2Oc3cc(-c4cnc([C@@H]5CCCN5C(=O)[C@@H](NC(=O)OC)C(C)C)[nH]4)cc(F)c3-c3cc4cc(-c5cnc([C@@H]6C[C@H]7C[C@H]7N6C(=O)[C@@H](NC(=O)OC)C(C)C)[nH]5)ccc4n32)s1 (stereo partly specified) | 0.012 | 0.04 | 0.21 | 0.005 | 0.022 | 0.008
COC(=O)N[C@H](C(=O)N1CCC[C@H]1c1ncc(-c2cc(F)c3c(c2)OC(c2cc(C4CC4)cs2)n2c-3cc3cc(-c4cnc([C@@H]5CCCN5C(=O)[C@@H](NC(=O)OC)C(C)C)[nH]4)ccc32)[nH]1)C(C)C (stereo partly specified) | 0.008 | 1.74 | 1.6 | < 0.002 | 0.028 | –
COC(=O)N[C@H](C(=O)N1CCC[C@H]1c1ncc(-c2cc(F)c3c(c2)OC(c2cc(F)c(C4CC4)s2)n2c-3cc3cc(-c4cnc([C@@H]5CCCN5C(=O)[C@@H](NC(=O)OC)C(C)C)[nH]4)ccc32)[nH]1)C(C)C (stereo partly specified) | 0.012 | 0.17 | 0.68 | 0.005 | 0.029 | 0.014
COCc1ccc(C2Oc3cc(-c4cnc([C@@H]5CCCN5C(=O)[C@@H](NC(=O)OC)C(C)C)[nH]4)cc(F)c3-c3cc4cc(-c5cnc([C@@H]6CCCN6C(=O)[C@@H](NC(=O)OC)C(C)C)[nH]5)ccc4n32)s1 (stereo partly specified) | 0.016 | 0.22 | 0.54 | 0.005 | 0.049 | 0.009
COC(=O)N[C@H](C(=O)N1CCC[C@H]1c1ncc(-c2cc(F)c3c(c2)OC(c2ccc(CC4CC4)s2)n2c-3cc3cc(-c4cnc([C@@H]5CCCN5C(=O)[C@@H](NC(=O)OC)C(C)C)[nH]4)ccc32)[nH]1)C(C)C (stereo partly specified) | 0.004 | 0.18 | – | 0.003 | 0.011 | 0.003
COC(=O)N[C@H](C(=O)N1CCC[C@H]1c1ncc(-c2cc(F)c3c(c2)OC(c2cnc(C(F)F)s2)n2c-3cc3cc(-c4cnc([C@@H]5CCCN5C(=O)[C@@H](NC(=O)OC)C(C)C)[nH]4)ccc32)[nH]1)C(C)C (stereo partly specified) | 0.004 | 0.056 | 0.069 | 0.002 | 0.003 | 0.002
COC(=O)N[C@H](C(=O)N1CCC[C@H]1c1ncc(-c2cc(F)c3c(c2)OC(c2ccc(C(=O)N(C)C)s2)n2c-3cc3cc(-c4cnc([C@@H]5CCCN5C(=O)[C@@H](NC(=O)OC)C(C)C)[nH]4)ccc32)[nH]1)C(C)C (stereo partly specified) | 0.12 | 0.47 | 0.45 | 0.014 | 0.035 | 0.024
CCCc1ncc(C2Oc3cc(-c4cnc([C@@H]5CCCN5C(=O)[C@@H](NC(=O)OC)C(C)C)[nH]4)cc(F)c3-c3cc4cc(-c5cnc([C@@H]6C[C@H]7C[C@H]7N6C(=O)[C@@H](NC(=O)OC)C(C)C)[nH]5)ccc4n32)s1 (stereo partly specified) | 0.009 | 0.021 | 0.14 | 0.005 | 0.013 | 0.012
COC(=O)N[C@H](C(=O)N1CCC[C@H]1c1ncc(-c2cc(F)c3c(c2)OC(c2ccc(C(F)F)s2)n2c-3cc3cc(-c4cnc([C@@H]5CCCN5C(=O)[C@@H](NC(=O)OC)C(C)C)[nH]4)ccc32)[nH]1)C(C)C (stereo partly specified) | 0.007 | 0.14 | 0.26 | 0.002 | 0.016 | 0.005
COC(=O)N[C@H](C(=O)N1CCC[C@H]1c1ncc(-c2cc(F)c3c(c2)OC(c2cnc(CC(F)(F)F)s2)n2c-3cc3cc(-c4cnc([C@@H]5CCCN5C(=O)[C@@H](NC(=O)OC)C(C)C)[nH]4)ccc32)[nH]1)C(C)C (stereo partly specified) | 0.015 | 0.18 | 0.22 | 0.005 | 0.05 | 0.013
COC(=O)N[C@H](C(=O)N1CCC[C@H]1c1ncc(-c2cc(F)c3c(c2)OC(c2ncc(C4CC4)s2)n2c-3cc3cc(-c4cnc([C@@H]5CCCN5C(=O)[C@@H](NC(=O)OC)C(C)C)[nH]4)ccc32)[nH]1)C(C)C (stereo partly specified) | – | 1 | 1.63 | 0.005 | 0.017 | –
COC(=O)N[C@H](C(=O)N1CCC[C@H]1c1ncc(-c2cc(F)c3c(c2)OC(c2ccc(C#N)s2)n2c-3cc3cc(-c4cnc([C@@H]5CCCN5C(=O)[C@@H](NC(=O)OC)C(C)C)[nH]4)ccc32)[nH]1)C(C)C (stereo partly specified) | 0.013 | 2.38 | 3.4 | < 0.002 | 0.087 | 0.004
COC(=O)N[C@H](C(=O)N1CCC[C@H]1c1ncc(-c2cc(F)c3c(c2)OC(c2cnc(C4CC4)o2)n2c-3cc3cc(-c4cnc([C@@H]5CCCN5C(=O)[C@@H](NC(=O)OC)C(C)C)[nH]4)ccc32)[nH]1)C(C)C (stereo partly specified) | 0.18 | 1.8 | 1.1 | 0.007 | 0.46 | 0.03
COC(=O)N[C@H](C(=O)N1CCC[C@H]1c1ncc(-c2cc(F)c3c(c2)OC(c2nc(C4CC4)cs2)n2c-3cc3cc(-c4cnc([C@@H]5CCCN5C(=O)[C@@H](NC(=O)OC)C(C)C)[nH]4)ccc32)[nH]1)C(C)C (stereo partly specified) | 0.073 | 2.6 | 4.6 | 0.002 | – | –
COC(=O)N[C@H](C(=O)N1CCC[C@H]1c1ncc(-c2cc(F)c3c(c2)OC(c2cc(C)c(C4CC4)s2)n2c-3cc3cc(-c4cnc([C@@H]5CCCN5C(=O)[C@@H](NC(=O)OC)C(C)C)[nH]4)ccc32)[nH]1)C(C)C (stereo partly specified) | 0.004 | 1.7 | 0.88 | 0.002 | 0.009 | 0.002
COC(=O)N[C@H](C(=O)N1CCC[C@H]1c1ncc(-c2cc(F)c3c(c2)OC(c2cnc(C(C)C)s2)n2c-3cc3cc(-c4cnc([C@@H]5CCCN5C(=O)[C@@H](NC(=O)OC)C(C)C)[nH]4)ccc32)[nH]1)C(C)C (stereo partly specified) | 0.006 | 0.05 | 0.14 | 0.002 | 0.022 | 0.004
COC(=O)N[C@H](C(=O)N1CCC[C@H]1c1ncc(-c2cc(F)c3c(c2)OC(c2sc(C(C)C)nc2C)n2c-3cc3cc(-c4cnc([C@@H]5CCCN5C(=O)[C@@H](NC(=O)OC)C(C)C)[nH]4)ccc32)[nH]1)C(C)C (stereo partly specified) | 0.034 | 12.5 | > 1.7 | 0.004 | 0.36 | 0.009
COC(=O)N[C@H](C(=O)N1CCC[C@H]1c1ncc(-c2cc(F)c3c(c2)OC(c2ccc(CC(F)(F)F)s2)n2c-3cc3cc(-c4cnc([C@@H]5CCCN5C(=O)[C@@H](NC(=O)OC)C(C)C)[nH]4)ccc32)[nH]1)C(C)C (stereo partly specified) | 0.007 | 0.1 | 0.65 | 0.001 | 0.022 | 0.004
COC(=O)N[C@H](C(=O)N1CCC[C@H]1c1ncc(-c2cc(F)c3c(c2)OC(c2cncs2)n2c-3cc3cc(-c4cnc([C@@H]5CCCN5C(=O)[C@@H](NC(=O)OC)C(C)C)[nH]4)ccc32)[nH]1)C(C)C (stereo partly specified) | 0.079 | 1 | 2.47 | 0.006 | – | –
COC(=O)N[C@H](C(=O)N1CCC[C@H]1c1ncc(-c2cc(F)c3c(c2)OC(c2sc(C4CC4)cc2F)n2c-3cc3cc(-c4cnc([C@@H]5CCCN5C(=O)[C@@H](NC(=O)OC)C(C)C)[nH]4)ccc32)[nH]1)C(C)C (stereo partly specified) | 0.008 | 0.74 | 0.68 | 0.002 | – | 0.003
COC(=O)N[C@H](C(=O)N1CCC[C@H]1c1ncc(-c2ccc3c(c2)cc2n3C(c3cc4ccccc4s3)Oc3cc(-c4cnc([C@@H]5C[C@@H](F)CN5C(=O)[C@@H](NC(=O)OC)C(C)C)[nH]4)ccc3-2)[nH]1)C(C)C (stereo partly specified) | 0.19 | 1.1 | 3.4 | 0.01 | 0.53 | –
